From patent US20240279221A1, “HETEROCYCLIC COMPOUNDS AND METHODS OF USE” (Schrödinger, Inc., priority 2021, published 2024)

Key:
[1] = biological target: SOS1:KRAS (G12C) interaction (Homo sapiens (Human), UniProt Q07889); test: SOS1-KRas(G12C) FRET Assay; format: binding; conditions: 0.5 nM His10-SOS1 (res. 564-1049), 2.5 nM GST-KRAS (res. 1-169, G12C); read-out: SOS-KRas(G12C) FRET IC50
How it was run: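 Compounds were pre-incubated 15 min at 25° C with SOS1 (His10, res. 564-1049; 0.5 nM final) and anti-6His-XL665, then GST-KRAS G12C (res. 1-169; 2.5 nM final) with anti-GST-Eu(K) was added for 2 h at RT. The buffer was PBS, 0.1% BSA, 5 mM MgCl2, 100 mM KF, 5 mM DTT with 0.5% DMSO. The 665/615 nm signal was normalised to DMSO and no-SOS1 controls, and IC50 and Hill coefficient were fitted by non-linear regression.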

human SOS1 = human SOS1 (Homo sapiens (Human), UniProt Q07889); test: Surface Plasmon Resonance (SPR) SOS1 Binding Assay; conditions: biotinylated SOS1 (res. 564-1049), 25° C., kinetic or steady state fit, read-out: KD for hSOS1
How it was run: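 Biotinylated human SOS1 (res. 564-1049, N-terminal Avi tag) captured on streptavidin chip to ~3,000 RU; 25° C., Tris buffer pH 8.0 with 1 mM MgCl2, 5% DMSO running buffer. Compound series (top 100, 50 or 0.5 μM) injected 60 s, dissociation 600 s; double-referenced KD from 1:1 kinetic or steady-state fit.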

Chain of SOS1:KRAS (G12C) interaction (Q07889 564-1049, stated change not applied): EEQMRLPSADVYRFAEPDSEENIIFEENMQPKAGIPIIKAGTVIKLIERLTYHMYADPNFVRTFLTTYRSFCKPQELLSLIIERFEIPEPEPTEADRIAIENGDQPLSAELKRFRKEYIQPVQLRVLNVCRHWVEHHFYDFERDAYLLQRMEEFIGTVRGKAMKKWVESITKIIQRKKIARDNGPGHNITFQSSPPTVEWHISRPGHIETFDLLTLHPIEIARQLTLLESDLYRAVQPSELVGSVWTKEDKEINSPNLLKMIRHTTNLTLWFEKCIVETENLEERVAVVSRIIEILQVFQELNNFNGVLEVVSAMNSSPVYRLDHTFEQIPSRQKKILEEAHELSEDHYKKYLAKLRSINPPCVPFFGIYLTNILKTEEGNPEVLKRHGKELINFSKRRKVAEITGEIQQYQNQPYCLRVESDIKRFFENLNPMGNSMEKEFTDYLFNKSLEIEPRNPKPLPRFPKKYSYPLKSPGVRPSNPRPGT
Chain of human SOS1 (Q07889 564-1049): as the sequence (Q07889 564-1049, stated change not applied) above

IC50 [1] [nM] | Kd (human SOS1) [nM] | SMILES
72.5 | 26 | C[C@@H](Nc1nn(C)c(=O)c2cc(=O)n(C3(C#N)CC3)cc12)c1cccc(C(F)F)c1F [Example 66, (R)-1-(4-((1-(3-(difluoromethyl)-2-fluorophenyl)ethyl)amino)-2-methyl-1,7-dioxo-1,7-dihydropyrido[3,4-d]pyridazin-6(2H)-yl)cyclopropane-1-carbonitrile]
62.4 | 21 | C[C@@H](Nc1nn(C)c(=O)c2cc(=O)n(C3CCOCC3)cc12)c1cccc2c(F)coc12 [Example 46, (R)-4-((1-(3-fluorobenzofuran-7-yl)ethyl)amino)-2-methyl-6-(tetrahydro-2H-pyran-4-yl)-2,6-dihydropyrido[3,4-d]pyridazine-1,7-dione]
89 | 55 | COC1(C)CN(CCn2nc(N[C@H](C)c3cccc(C(F)(F)F)c3C)c3cn(C4CC4)c(=O)cc3c2=O)C1 [Example 78, (R)-6-cyclopropyl-2-(2-(3-methoxy-3-methylazetidin-1-yl)ethyl)-4-((1-(2-methyl-3-(trifluoromethyl)phenyl)ethyl)amino)-2,6-dihydropyrido[3,4-d]pyridazine-1,7-dione]
25.9 | 10 | COc1c(=O)n([C@@H]2CCOC[C@H]2F)cc2c(N[C@H](C)c3cccc(C(F)F)c3F)nn(C)c(=O)c12 (single isomer, unassigned) [Example 61]
30.3 | 7 | C[C@@H](Nc1nn(C)c(=O)c2cc(=O)n([C@]3(C)CCOC3)cc12)c1cccc(C(F)F)c1F (single isomer, unassigned) [Example 53]
23.4 | 10 | C[C@@H](Nc1nn(C)c(=O)c2cc(=O)n(C3CCOCC3)cc12)c1cccc(C(F)(F)[C@@H]2CCCO2)c1F (single isomer, unassigned) [Example 45]
126 | 31 | C[C@@H](Nc1nn(C)c(=O)c2cc(=O)n(C3CC3)cc12)c1cccc2sccc12 [Example 64, (R)-4-((1-(benzo[b]thiophen-4-yl)ethyl)amino)-6-cyclopropyl-2-methyl-2,6-dihydropyrido[3,4-d]pyridazine-1,7-dione]
300 | 124 | Cc1c([C@@H](C)Nc2nn(CCN3CC(C)(F)C3)c(=O)c3cc(=O)n(C4CC4)cc23)cccc1C(F)(F)F [Example 79, (R)-6-cyclopropyl-2-(2-(3-fluoro-3-methylazetidin-1-yl)ethyl)-4-((1-(2-methyl-3-(trifluoromethyl)phenyl)ethyl)amino)-2,6-dihydropyrido[3,4-d]pyridazine-1,7-dione]
92.8 | 37 | C[C@@H](Nc1nn(C)c(=O)c2cc(=O)n(C3CC(C#N)C3)cc12)c1cccc(C(F)F)c1F (stereo partly drawn) [Example 76, (1r,3s)-3-(4-(((R)-1-(3-(difluoromethyl)-2-fluorophenyl)ethyl)amino)-2-methyl-1,7-dioxo-1,7-dihydropyrido[3,4-d]pyridazin-6(2H)-yl)cyclobutane-1-carbonitrile]
47.3 | 17 | C[C@@H](Nc1nn(C)c(=O)c2cc(=O)n(C3CC4(COC4)C3)cc12)c1cccc(C(F)F)c1F [Example 51, (R)-4-((1-(3-(difluoromethyl)-2-fluorophenyl)ethyl)amino)-2-methyl-6-(2-oxaspiro[3.3]heptan-6-yl)pyrido[3,4-d]pyridazine-1,7(2H,6H)-dione]
32.2 | 14 | Cc1c([C@@H](C)Nc2nn(C)c(=O)c3cc(=O)n([C@]4(C)CCOC4)cc23)cccc1C(F)(F)F (single isomer, unassigned) [Example 55]

The next lines start with the molecule.

SMILES | IC50 [1] [nM] | Kd (human SOS1) [nM]
C[C@@H](Nc1nn(C)c(=O)c2cc(=O)n([C@H]3CCOC[C@@H]3F)cc12)c1cccc(C(F)F)c1F (single isomer, unassigned) [Example 30] | 20.7 | 9
C[C@@H](Nc1nn(C)c(=O)c2cc(=O)n(C3CCOCC3)cc12)c1cccc(C(F)F)c1F [Example 18, (R)-4-((1-(3-(difluoromethyl)-2-fluorophenyl)ethyl)amino)-2-methyl-6-(tetrahydro-2H-pyran-4-yl)-2,6-dihydropyrido[3,4-d]pyridazine-1,7-dione] | 53.8 | 16
Cc1cc([C@H](C)Nc2nn(C)c(=O)c3cc(=O)n(C4CC4)cc23)cc2c1c(C#N)nn2C (single isomer, unassigned) [Example 28] | 76200 | 3020
Cc1c([C@@H](C)Nc2nn(C)c(=O)c3c(N4CC[C@H](N)C4)c(=O)n(C4CC4)cc23)cccc1C(F)(F)F [Example 21, 8-((S)-3-aminopyrrolidin-1-yl)-6-cyclopropyl-2-methyl-4-(((R)-1-(2-methyl-3-(trifluoromethyl)phenyl)ethyl)amino)-2,6-dihydropyrido[3,4-d]pyridazine-1,7-dione] | 300 | 70
Cc1c([C@@H](C)Nc2nn(C)c(=O)c3c(C#N)c(=O)n(C4CC4)cc23)cccc1C(F)(F)F [Example 10, (R)-6-cyclopropyl-2-methyl-4-((1-(2-methyl-3-(trifluoromethyl)phenyl)ethyl)amino)-1,7-dioxo-1,2,6,7-tetrahydropyrido[3,4-d]pyridazine-8-carbonitrile] | 2250 | 136
Cc1c([C@@H](C)Nc2nn(C)c(=O)c3cc(=O)n(C4CC4)cc23)cccc1C(F)(F)F [Example 2, (R)-6-cyclopropyl-2-methyl-4-((1-(2-methyl-3-(trifluoromethyl)phenyl)ethyl)amino)-2,6-dihydropyrido[3,4-d]pyridazine-1,7-dione] | 328 | 57
Cc1c([C@@H](C)Nc2nn(C)c(=O)c3c(Cl)c(=O)n(C4CC4)cc23)cccc1C(F)(F)F [Example 11, (R)-8-chloro-6-cyclopropyl-2-methyl-4-((1-(2-methyl-3-(trifluoromethyl)phenyl)ethyl)amino)-2,6-dihydropyrido[3,4-d]pyridazine-1,7-dione] | 592 | 95
C[C@@H](Nc1nn(C)c(=O)c2cc(=O)n(C3CC3)cc12)c1ccc2c(C#N)nn(C)c2c1 (single isomer, unassigned) [Example 25] | 3860 | 225
CCOc1c(=O)n(C2CC2)cc2c(N[C@H](C)c3cccc(C(F)(F)F)c3C)nn(C)c(=O)c12 [Example 19, (R)-6-cyclopropyl-8-ethoxy-2-methyl-4-((1-(2-methyl-3-(trifluoromethyl)phenyl)ethyl)amino)-2,6-dihydropyrido[3,4-d]pyridazine-1,7-dione] | 806 | 161
COc1c(=O)n(C2CC2)cc2c(N[C@H](C)c3cccc(C(F)(F)F)c3C)nn(C)c(=O)c12 [Example 6, (R)-6-cyclopropyl-8-methoxy-2-methyl-4-((1-(2-methyl-3-(trifluoromethyl)phenyl)ethyl)amino)-2,6-dihydropyrido[3,4-d]pyridazine-1,7-dione] | 161 | 44
Cc1c([C@@H](C)Nc2nn(C)c(=O)c3cc(=O)n([C@H]4C[C@H](O)C4)cc23)cccc1C(F)(F)F [Example 13, 6-((1r,3r)-3-hydroxycyclobutyl)-2-methyl-4-(((R)-1-(2-methyl-3-(trifluoromethyl)phenyl)ethyl)amino)-2,6-dihydropyrido[3,4-d]pyridazine-1,7-dione] | 99.6 | 25
Cc1c([C@@H](C)Nc2nn(C)c(=O)c3c([C@@H]4CCCN4)c(=O)n(C4CC4)cc23)cccc1C(F)(F)F (single isomer, unassigned) [Example 34] | 43.9 | 10
Cc1c([C@@H](C)Nc2nn(C)c(=O)c3cc(=O)n(C4(C)CC4)cc23)cccc1C(F)(F)F [Example 15, (R)-2-methyl-4-((1-(2-methyl-3-(trifluoromethyl)phenyl)ethyl)amino)-6-(1-methylcyclopropyl)-2,6-dihydropyrido[3,4-d]pyridazine-1,7-dione] | 198 | 40
Cc1c([C@@H](C)Nc2nn(C)c(=O)c3cc(=O)n(C4CCOCC4)cc23)cccc1C(F)(F)F [Example 4, (R)-2-methyl-4-((1-(2-methyl-3-(trifluoromethyl)phenyl)ethyl)amino)-6-(tetrahydro-2H-pyran-4-yl)-2,6-dihydropyrido[3,4-d]pyridazine-1,7-dione] | 54.6 | 22
